Here are results for eight molecules from patent US7294638B2, “Treatment of ADHD” (H. Lundbeck A/S, priority 2001, dated 2007).

Assay [1] concerns DAT knock-out (KO) mice. To be noted: Gainetdinov et al. Science 1999; cited from earlier work.
For assay [2] the following is noted: clinical; Barrickman et al. 1991; cited from earlier work.
The next assay deals with T1, dopamine D4 receptors (Homo sapiens, UniProt P21917).
T1 sequence (P21917 1-419): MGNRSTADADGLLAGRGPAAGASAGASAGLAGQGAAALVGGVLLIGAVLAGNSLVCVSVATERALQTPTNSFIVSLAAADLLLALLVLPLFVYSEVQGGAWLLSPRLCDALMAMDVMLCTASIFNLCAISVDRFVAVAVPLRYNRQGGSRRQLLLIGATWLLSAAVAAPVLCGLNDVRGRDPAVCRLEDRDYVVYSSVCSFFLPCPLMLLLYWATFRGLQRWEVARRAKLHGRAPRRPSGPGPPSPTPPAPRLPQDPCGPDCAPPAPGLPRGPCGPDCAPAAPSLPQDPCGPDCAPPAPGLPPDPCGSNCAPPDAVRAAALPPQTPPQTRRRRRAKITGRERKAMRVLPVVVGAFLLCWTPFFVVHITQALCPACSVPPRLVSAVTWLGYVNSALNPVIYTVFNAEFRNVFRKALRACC
To be noted: data in WO 98/28293; cited from earlier work.

Assay [3] has as its system DAT knock-out (KO) mice. The assay is described as follows: DAT-KO mice model of ADHD (hyperactivity). It counts as in vivo. To be noted: animal model of ADHD. The source says: A very useful animal model of ADHD is the DAT knock-out (KO) mice (Gainetdinov et al. Science 1999, 283, 397-401).
The compound, (S)-(+)-3-[1-[2-(1-acetyl-2,3-dihydro-1H-indol-3-yl)ethyl]-1,2,3,6-tetrahydropyridin-4-yl]-6-chloro-1H-indole, has been tested in the DAT-KO mice, an animal model which have many behaviour patterns and responses to psychostimulants in common with individuals with ADHD (Gainetdinov et al. Science 1999, 283, 397-401).

Consider `N[C@@H](Cc1c[nH]c2ccccc12)C(=O)O` [L-tryptophan], for which, in the assay on DAT knock-out (KO) mice [1], the “reversal of hyperactivity in DAT-KO mice” value is given as “counteract the hyperactivity”.
As to `CNCCC(Oc1ccc(C(F)(F)F)cc1)c1ccccc1` (stereo not drawn) [fluoxetine], the “reversal of hyperactivity in DAT-KO mice” value in the assay on DAT knock-out (KO) mice [1] is given as “counteract the hyperactivity”. In assay [2], the “reducing symptoms of ADHD” value is “effective in reducing symptoms of ADHD”.
Take `COC(=O)C(c1ccccc1)C1CCCCN1` (stereo not drawn) [methylphenidate]: the “reversal of hyperactivity in DAT-KO mice” value in the assay on DAT knock-out (KO) mice [1] is recorded as “can be reversed”.
`CC(N)Cc1ccccc1` (stereo not drawn) [amphetamine]: in the assay on DAT knock-out (KO) mice [1], the “reversal of hyperactivity in DAT-KO mice” value is “can be reversed”.
`N[C@@H](Cc1c[nH]c2ccc(O)cc12)C(=O)O` [5-hydroxytryptophan]: the “reversal of hyperactivity in DAT-KO mice” value in the assay on DAT knock-out (KO) mice [1] was “counteract the hyperactivity”.
With `CC(=O)N1CC(CCN2CC=C(c3c[nH]c4cc(Cl)ccc34)CC2)c2ccccc21` (racemic) [3-[1-[2-(1-acetyl-2,3-dihydro-1H-indol-3-yl)ethyl]-1,2,3,6-tetrahydropyridin-4-yl]-6-chloro-1H-indole], the “dopamine D4 ligand potency” value on dopamine D4 receptors is “potent dopamine D4 ligand”.
For the molecule `CC(=O)N1C[C@@H](CCN2CC=C(c3c[nH]c4cc(Cl)ccc34)CC2)c2ccccc21` [(S)-(+)-3-[1-[2-(1-acetyl-2,3-dihydro-1H-indol-3-yl)ethyl]-1,2,3,6-tetrahydropyridin-4-yl]-6-chloro-1H-indole], in the assay with DAT knock-out (KO) mice [3], the “effect in the DAT-KO mice model” value was “have effect in this model”.
For `c1ccc2nc(N3CCNCC3)ccc2c1` [quipazine], the “reversal of hyperactivity in DAT-KO mice” value with DAT knock-out (KO) mice [1] is “counteract the hyperactivity”.
